According to the supplement of paper PMC10307832:

Assays:
Experiment in all cases: relative viability (nuclei count vs DMSO), 5 days (fraction); higher = more cells survive
[1] = compound: CC1=CC(=NN1)NC2=CC(=NC(=N2)/C=C/C3=CC=CC=C3)N4CCN(CC4)C + CCNC(=O)c1noc(-c2cc(C(C)C)c(O)cc2O)c1-c1ccc(CN2CCOCC2)cc1 [Luminespib] (partner 0.01 µM)
Summary of the method: (§1)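 Medians of duplicate plates are given as relative viability. That measure is the nuclei count in treated wells divided by the count in vehicle wells. Counts were taken on 4× images of lung cancer cell lines in 1536-well plates, 5 days after pin-tool dosing the day after seeding with one drug alone or a fixed anchor-drug dose plus five library-drug doses (not always all listed) in √10 steps.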

[2] = compound: CC1=CC(=NN1)NC2=CC(=NC(=N2)/C=C/C3=CC=CC=C3)N4CCN(CC4)C + COc1cc2c(Oc3ccc(NC(=O)C4(C(=O)Nc5ccc(F)cc5)CC4)cc3F)ccnc2cc1OCCCN1CCOCC1 [Foretinib] (partner 0.25 µM)
Summary of the method: as §1

[3] = compound: CC1=CC(=NN1)NC2=CC(=NC(=N2)/C=C/C3=CC=CC=C3)N4CCN(CC4)C + Nc1nc2[nH]cc(CCc3ccc(C(=O)N[C@@H](CCC(=O)O)C(=O)O)cc3)c2c(=O)[nH]1 [Pemetrexed] (partner 0.2 µM)
Summary of the method: as §1

[4] = compound: CC1=CC(=NN1)NC2=CC(=NC(=N2)/C=C/C3=CC=CC=C3)N4CCN(CC4)C + O=C(c1cc(Cc2n[nH]c(=O)c3ccccc23)ccc1F)N1CCN(C(=O)C2CC2)CC1 [Olaparib] (partner 8 µM)
Summary of the method: as §1

**Q.** NCI-H650 was tested. Which relative viability ([1]; first compound 0.253 µM) did it give?
**A.** The relative viability was 0.915.

**Q.** What about the relative viability ([1]; first compound 0.8 µM) of the same cell line?
**A.** The relative viability was 0.813.

**Q.** What about the relative viability ([1]; first compound 2.53 µM) of the same cell line?
**A.** The relative viability was 0.411.

**Q.** And the relative viability ([1]; first compound 8 µM)?
**A.** Its relative viability is 0.111.

**Q.** What about the relative viability ([2]; first compound 0.253 µM) of the same cell line?
**A.** Its relative viability is 1.14.

**Q.** What about the relative viability ([2]; first compound 0.8 µM) of the same cell line?
**A.** Its relative viability is 1.01.

**Q.** And the relative viability ([2]; first compound 2.53 µM)?
**A.** Its relative viability is 0.923.

**Q.** What about the relative viability ([2]; first compound 8 µM) of the same cell line?
**A.** The relative viability was 0.255.

**Q.** What about the relative viability ([3]; first compound 0.08 µM) of the same cell line?
**A.** Its relative viability is 1.01.

**Q.** And the relative viability ([3]; first compound 0.253 µM)?
**A.** The relative viability was 1.08.

**Q.** And the relative viability ([3]; first compound 0.8 µM)?
**A.** The relative viability was 1.01.

**Q.** And the relative viability ([3]; first compound 2.53 µM)?
**A.** Its relative viability is 0.727.

**Q.** What about the relative viability ([3]; first compound 8 µM) of the same cell line?
**A.** Its relative viability is 0.307.

**Q.** And the relative viability ([4]; first compound 0.08 µM)?
**A.** Its relative viability is 0.376.

**Q.** And the relative viability ([4]; first compound 0.253 µM)?
**A.** The relative viability was 0.431.

**Q.** What about the relative viability ([4]; first compound 0.8 µM) of the same cell line?
**A.** The relative viability was 0.416.

**Q.** What about the relative viability ([4]; first compound 2.53 µM) of the same cell line?
**A.** The relative viability was 0.344.

**Q.** And the relative viability ([4]; first compound 8 µM)?
**A.** The relative viability was 0.136.
